According to ChEMBL document CHEMBL4152332, “Discovery and synthesis of novel magnolol derivatives with potent anticancer activity in non-small cell lung cancer” (Eur J Med Chem, 2018):

Tests used:
[1] = system: NCI-H1975; assay: Antiproliferative activity against human NCI-H1975 cells after 72 hrs by MTT assay; type: functional, cell-based; settings: NCI-H1975, 72 h
[2] = system: NCI-H1975; assay: Induction of apoptosis in human NCI-H1975 cells assessed as early apoptotic cells at 10 uM after 48 hrs by annexin V/FITC-propidium iodide staining-based flow cytometric method ( Rvb = 6.09%); type: functional
[3] = system: NCI-H1975; assay: Cell cycle arrest in human NCI-H1975 cells assessed as accumulation at S phase at 5 uM after 24 hrs by propidium iodide staining-based flow cytometric analysis (reference value: 22.93%); type: functional
[4] = system: NCI-H1975; assay: Induction of apoptosis in human NCI-H1975 cells assessed as necrotic cells at 20 uM after 48 hrs by annexin V/FITC-propidium iodide staining-based flow cytometric method ( Rvb = 1.01%); type: functional
[5] = system: NCI-H1975; assay: Antitumor activity against human NCI-H1975 cells xenografted in Balb/c mouse assessed as change in tumor mass at 100 mg/kg, po qd treated for 18 days and measured every 2 days after compound dosing relative to control; type: functional
[6] = system: NCI-H1650; assay: Antiproliferative activity against human NCI-H1650 cells after 72 hrs by MTT assay; type: functional, cell-based; settings: NCI-H1650, 72 h
[7] = system: HCC827; assay: Potency index, ratio of IC50 for magnolol to IC50 for test compound for antiproliferative activity against human HCC827 cells after 72 hrs by MTT assay; type: functional
[8] = system: Mus musculus; assay: Toxicity in Balb/c mouse xenografted with human NCI-H1975 cells assessed as change in body weight at 100 mg/kg, po qd treated for 18 days and measured every 2 days after compound dosing ( Rvb = 2.89%); type: organism-based; settings: in vivo
[9] = system: Mus musculus; assay: Toxicity in Balb/c mouse xenografted with human NCI-H1975 cells assessed as effect on liver size at 5 to 20 mg/kg, iv treated every 2 days for 9 days; type: organism-based; settings: in vivo
[10] = system: Mus musculus; assay: Toxicity in Balb/c mouse xenografted with human NCI-H1975 cells assessed as change in body weight at 5 mg/kg, iv treated every 2 days for 9 days and measured every 2 days after compound dosing ( Rvb = 2.89%); type: organism-based; settings: in vivo
[11] = system: NCI-H1975; assay: Antitumor activity against human NCI-H1975 cells xenografted in Balb/c mouse assessed as change in tumor mass at 10 mg/kg, iv treated every 2 days for 9 days and measured every 2 days after compound dosing relative to control; type: functional
[12] = system: NCI-H1975; assay: Cell cycle arrest in human NCI-H1975 cells assessed as increase in accumulation at G0/G1 phase after 24 hrs by propidium iodide staining-based flow cytometric analysis; type: functional
[13] = system: NCI-H1975; assay: Induction of apoptosis in human NCI-H1975 cells assessed as viable cells at 10 uM after 48 hrs by annexin V/FITC-propidium iodide staining-based flow cytometric method ( Rvb = 82.5%); type: functional; settings: NCI-H1975, 48 h, read-out: Activity
[14] = system: NCI-H1975; assay: Induction of apoptosis in human NCI-H1975 cells assessed as decrease in Cdk2 level after 24 hrs by Western blot analysis; type: functional, cell-based
[15] = system: Mus musculus; assay: Toxicity in Balb/c mouse xenografted with human NCI-H1975 cells assessed as effect on lung morphology at 5 to 20 mg/kg, iv treated every 2 days for 9 days; type: organism-based; settings: in vivo
[16] = system: NCI-H1975; assay: Induction of apoptosis in human NCI-H1975 cells assessed as necrotic cells at 5 uM after 48 hrs by annexin V/FITC-propidium iodide staining-based flow cytometric method ( Rvb = 1.01%); type: functional
[17] = system: NCI-H1975; assay: Cell cycle arrest in human NCI-H1975 cells assessed as accumulation at G2/M phase at 10 uM after 24 hrs by propidium iodide staining-based flow cytometric analysis (reference value: 20.11%); type: functional
[18] = system: NCI-H460; assay: Potency index, ratio of IC50 for honokiol to IC50 for test compound for antiproliferative activity against human H460 cells after 72 hrs by MTT assay; type: functional
[19] = system: NCI-H358; assay: Antiproliferative activity against human NCI-H358 cells after 72 hrs by MTT assay; type: functional, cell-based; settings: NCI-H358, 72 h
[20] = system: Mus musculus; assay: Toxicity in Balb/c mouse xenografted with human NCI-H1975 cells assessed as mouse death at 5 to 20 mg/kg, iv treated every 2 days for 9 days and measured every 2 days after compound dosing; type: organism-based; settings: in vivo
[21] = system: NCI-H1975; assay: Cell cycle arrest in human NCI-H1975 cells assessed as accumulation at G0/G1 phase at 5 uM after 24 hrs by propidium iodide staining-based flow cytometric analysis (reference value: 56.11%); type: functional
[22] = system: NCI-H1975; assay: Induction of apoptosis in human NCI-H1975 cells assessed as viable cells at 20 uM after 48 hrs by annexin V/FITC-propidium iodide staining-based flow cytometric method ( Rvb = 82.5%); type: functional; settings: NCI-H1975, 48 h, read-out: Activity
[23] = system: Mus musculus; assay: Toxicity in Balb/c mouse implanted with mouse C26 cells assessed as change in body weight at 100 mg/kg, po qd treated for 10 days and measured every 2 days (RVB = 16.4%); type: organism-based; settings: in vivo
[24] = system: A549; assay: Antiproliferative activity against human A549 cells after 72 hrs by MTT assay; type: functional, cell-based; settings: A549, 72 h
[25] = system: NCI-H1975; assay: Cell cycle arrest in human NCI-H1975 cells assessed as accumulation at G0/G1 phase at 20 uM after 24 hrs by propidium iodide staining-based flow cytometric analysis (reference value: 56.11%); type: functional
[26] = system: Mus musculus; assay: Toxicity in Balb/c mouse xenografted with human NCI-H1975 cells assessed as effect on heart morphology at 5 to 20 mg/kg, iv treated every 2 days for 9 days; type: organism-based; settings: in vivo
[27] = system: NCI-H1975; assay: Potency index, ratio of IC50 for honokiol to IC50 for test compound for antiproliferative activity against human NCI-H1975 cells after 72 hrs by MTT assay; type: functional
[28] = system: NCI-H1975; assay: Antitumor activity against human NCI-H1975 cells xenografted in Balb/c mouse assessed as change in tumor mass at 10 mg/kg, po qd treated for 18 days and measured every 2 days after compound dosing relative to control; type: functional
[29] = system: NCI-H1975; assay: Induction of apoptosis in human NCI-H1975 cells assessed as decrease in cyclin E level after 24 hrs by Western blot analysis; type: functional, cell-based
[30] = system: HCC827; assay: Potency index, ratio of IC50 for honokiol to IC50 for test compound for antiproliferative activity against human HCC827 cells after 72 hrs by MTT assay; type: functional
[31] = Antiproliferative activity against human SPC-A1 cells after 72 hrs by MTT assay; type: functional, cell-based; settings: SPCA1, 72 h
[32] = system: NCI-H1975; assay: Cell cycle arrest in human NCI-H1975 cells assessed as reduction in accumulation at G2/M phase after 24 hrs by propidium iodide staining-based flow cytometric analysis; type: functional
[33] = system: HUVEC; assay: Antimigratory activity against HUVEC after 24 to 48 hrs by phase contrast/fluorescence microscopic analysis; type: functional, cell-based; settings: Homo sapiens
[34] = system: NCI-H1975; assay: Induction of apoptosis in human NCI-H1975 cells assessed as late apoptotic cells at 5 uM after 48 hrs by annexin V/FITC-propidium iodide staining-based flow cytometric method ( Rvb = 10.4%); type: functional
[35] = system: NCI-H1975; assay: Induction of apoptosis in human NCI-H1975 cells assessed as early apoptotic cells at 20 uM after 48 hrs by annexin V/FITC-propidium iodide staining-based flow cytometric method ( Rvb = 6.09%); type: functional
[36] = system: NCI-H1975; assay: Antitumor activity against human NCI-H1975 cells xenografted in Balb/c mouse assessed as change in tumor mass at 30 mg/kg, po qd treated for 18 days and measured every 2 days after compound dosing relative to control; type: functional

In the case of `C=CCc1ccc(O)c(-c2cc(CC=C)cc(CN3CCC(N)CC3)c2O)c1`, the IC50 [1] is reported as 5.61 µM, the Activity [2] is reported as 10.1% and the Activity [3] is reported as 22.39%. The Activity [4] was 0.35%, the Activity [5] was 61.2% and the IC50 [6] was 4.81 µM. For the same compound, the “Ratio IC50” value [7] was 8, the Activity [8] was -5.72% and the Activity [9] was “Non-Toxic”. The Activity [10] was 4.4%, the Activity [11] was 57.5% and the Activity [12] was “Dose-dependent effect”. The viability at 10 µM [13] was 56.7%, the Activity [14] was “Dose-dependent effect” and the Activity [15] was “Non-Toxic”. For the same compound, the Activity [16] was 0.52%, the Activity [17] was 12.73% and the “Ratio IC50” value [18] was 4. For the same compound, the IC50 [19] was 7.43 µM, the Activity [20] was “Non-Toxic” and the Activity [21] was 62.26%. It also gave a viability at 20 µM [22] of 3.75%, an Activity [23] of -9.3% and an IC50 [24] of 5.48 µM. The Activity [25] was 79.45%, the Activity [26] was “Non-Toxic” and the “Ratio IC50” value [27] was 4. For the same compound, the Activity [28] was 46.3%, the Activity [29] was “Dose-dependent effect” and the “Ratio IC50” value [30] was 4. For the same compound, the IC50 [31] was 7.89 µM, the Activity [32] was “Dose-dependent effect” and the Activity [33] was “Dose-dependent effect”. For the same compound, the Activity [34] was 26.3%, the Activity [35] was 46.8% and the Activity [36] was 59.3%.
